Laboratory results as given in PubChem BioAssay (NCI).
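Each compound was tested at five concentrations against cells in 96-well plates for 48 hours. GI50 is the concentration that inhibits growth by half. At the TGI there is no net growth.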

Key:
Experiment in all cases: DTP human tumour cell line panel, 48 h
786-0 renal = test system: 786-0 renal
A498 renal = test system: A498 renal
A549 NSCLC = test system: A549 NSCLC
ACHN renal = test system: ACHN renal
BT-549 breast = test system: BT-549 breast
CAKI-1 renal = test system: CAKI-1 renal
CCRF-CEM leukemia = test system: CCRF-CEM leukemia
COLO 205 colon = test system: COLO 205 colon
DU-145 prostate = test system: DU-145 prostate
EKVX NSCLC = test system: EKVX NSCLC
HCC-2998 colon = test system: HCC-2998 colon
HCT-116 colon = test system: HCT-116 colon
HCT-15 colon = test system: HCT-15 colon
HL-60(TB) leukemia = test system: HL-60(TB) leukemia
HOP-62 NSCLC = test system: HOP-62 NSCLC
HOP-92 NSCLC = test system: HOP-92 NSCLC
HS 578T breast = test system: HS 578T breast
HT29 colon = test system: HT29 colon
IGROV1 ovarian = test system: IGROV1 ovarian
K-562 leukemia = test system: K-562 leukemia
KM12 colon = test system: KM12 colon
LOX IMVI melanoma = test system: LOX IMVI melanoma
M14 melanoma = test system: M14 melanoma
MALME-3M melanoma = test system: MALME-3M melanoma
MCF7 breast = test system: MCF7 breast
MDA-MB-231 breast = test system: MDA-MB-231 breast
MDA-MB-435 = test system: MDA-MB-435
MOLT-4 leukemia = test system: MOLT-4 leukemia
NCI-H226 lung = test system: NCI-H226 lung
NCI-H23 lung = test system: NCI-H23 lung
NCI-H460 lung = test system: NCI-H460 lung
NCI-H522 lung = test system: NCI-H522 lung
NCI/ADR-RES ovarian = test system: NCI/ADR-RES ovarian
OVCAR-3 ovarian = test system: OVCAR-3 ovarian
OVCAR-4 ovarian = test system: OVCAR-4 ovarian
OVCAR-5 ovarian = test system: OVCAR-5 ovarian
OVCAR-8 ovarian = test system: OVCAR-8 ovarian
PC-3 prostate = test system: PC-3 prostate
RPMI-8226 leukemia = test system: RPMI-8226 leukemia
SF-268 CNS = test system: SF-268 CNS
SF-295 CNS = test system: SF-295 CNS
SF-539 CNS = test system: SF-539 CNS
SK-MEL-2 melanoma = test system: SK-MEL-2 melanoma
SK-MEL-28 melanoma = test system: SK-MEL-28 melanoma
SK-MEL-5 melanoma = test system: SK-MEL-5 melanoma
SK-OV-3 ovarian = test system: SK-OV-3 ovarian
SN12C renal = test system: SN12C renal
SNB-19 CNS = test system: SNB-19 CNS
SNB-75 CNS = test system: SNB-75 CNS
SR leukemia = test system: SR leukemia
SW-620 colon = test system: SW-620 colon
T-47D breast = test system: T-47D breast
TK-10 renal = test system: TK-10 renal
U251 CNS = test system: U251 CNS
UACC-257 melanoma = test system: UACC-257 melanoma
UACC-62 melanoma = test system: UACC-62 melanoma
UO-31 renal = test system: UO-31 renal

**Q.** What does the source list for `N=c1ccn(O)cc1/C=C1/C(=O)Nc2ccccc21`?
**A.** GI50 (786-0 renal): > 100 µM; TGI (786-0 renal): > 100 µM; GI50 (A498 renal): > 100 µM; TGI (A498 renal): > 100 µM; GI50 (A549 NSCLC): > 100 µM; TGI (A549 NSCLC): > 100 µM; GI50 (ACHN renal): > 100 µM; TGI (ACHN renal): > 100 µM; GI50 (BT-549 breast): > 100 µM; TGI (BT-549 breast): > 100 µM; GI50 (CAKI-1 renal): > 100 µM; TGI (CAKI-1 renal): > 100 µM; GI50 (CCRF-CEM leukemia): > 100 µM; TGI (CCRF-CEM leukemia): > 100 µM; GI50 (COLO 205 colon): > 100 µM; TGI (COLO 205 colon): > 100 µM; GI50 (DU-145 prostate): > 100 µM; TGI (DU-145 prostate): > 100 µM; GI50 (EKVX NSCLC): > 100 µM; TGI (EKVX NSCLC): > 100 µM; GI50 (HCC-2998 colon): > 100 µM; TGI (HCC-2998 colon): > 100 µM; GI50 (HCT-116 colon): > 100 µM; TGI (HCT-116 colon): > 100 µM; GI50 (HCT-15 colon): > 100 µM; TGI (HCT-15 colon): > 100 µM; GI50 (HL-60(TB) leukemia): > 100 µM; TGI (HL-60(TB) leukemia): > 100 µM; GI50 (HOP-62 NSCLC): > 100 µM; TGI (HOP-62 NSCLC): > 100 µM; GI50 (HOP-92 NSCLC): > 100 µM; TGI (HOP-92 NSCLC): > 100 µM; GI50 (HS 578T breast): > 100 µM; TGI (HS 578T breast): > 100 µM; GI50 (HT29 colon): > 100 µM; TGI (HT29 colon): > 100 µM; GI50 (IGROV1 ovarian): > 100 µM; TGI (IGROV1 ovarian): > 100 µM; GI50 (K-562 leukemia): > 100 µM; TGI (K-562 leukemia): > 100 µM; GI50 (KM12 colon): > 100 µM; TGI (KM12 colon): > 100 µM; GI50 (LOX IMVI melanoma): > 100 µM; TGI (LOX IMVI melanoma): > 100 µM; GI50 (M14 melanoma): > 100 µM; TGI (M14 melanoma): > 100 µM; GI50 (MALME-3M melanoma): > 100 µM; TGI (MALME-3M melanoma): > 100 µM; GI50 (MCF7 breast): > 100 µM; TGI (MCF7 breast): > 100 µM; GI50 (MDA-MB-231 breast): > 100 µM; TGI (MDA-MB-231 breast): > 100 µM; GI50 (MDA-MB-435): > 100 µM; TGI (MDA-MB-435): > 100 µM; GI50 (MOLT-4 leukemia): > 100 µM; TGI (MOLT-4 leukemia): > 100 µM; GI50 (NCI-H226 lung): > 100 µM; TGI (NCI-H226 lung): > 100 µM; GI50 (NCI-H23 lung): > 100 µM; TGI (NCI-H23 lung): > 100 µM; GI50 (NCI-H460 lung): > 100 µM; TGI (NCI-H460 lung): > 100 µM; GI50 (NCI-H522 lung): > 100 µM; TGI (NCI-H522 lung): > 100 µM; GI50 (NCI/ADR-RES ovarian): > 100 µM; TGI (NCI/ADR-RES ovarian): > 100 µM; GI50 (OVCAR-3 ovarian): > 100 µM; TGI (OVCAR-3 ovarian): > 100 µM; GI50 (OVCAR-4 ovarian): > 100 µM; TGI (OVCAR-4 ovarian): > 100 µM; GI50 (OVCAR-5 ovarian): > 100 µM; TGI (OVCAR-5 ovarian): > 100 µM; GI50 (OVCAR-8 ovarian): > 100 µM; TGI (OVCAR-8 ovarian): > 100 µM; GI50 (PC-3 prostate): > 100 µM; TGI (PC-3 prostate): > 100 µM; GI50 (RPMI-8226 leukemia): > 100 µM; TGI (RPMI-8226 leukemia): > 100 µM; GI50 (SF-268 CNS): > 100 µM; TGI (SF-268 CNS): > 100 µM; GI50 (SF-295 CNS): > 100 µM; TGI (SF-295 CNS): > 100 µM; GI50 (SF-539 CNS): > 100 µM; TGI (SF-539 CNS): > 100 µM; GI50 (SK-MEL-2 melanoma): > 100 µM; TGI (SK-MEL-2 melanoma): > 100 µM; GI50 (SK-MEL-28 melanoma): > 100 µM; TGI (SK-MEL-28 melanoma): > 100 µM; GI50 (SK-MEL-5 melanoma): > 100 µM; TGI (SK-MEL-5 melanoma): > 100 µM; GI50 (SK-OV-3 ovarian): > 100 µM; TGI (SK-OV-3 ovarian): > 100 µM; GI50 (SN12C renal): > 100 µM; TGI (SN12C renal): > 100 µM; GI50 (SNB-19 CNS): > 100 µM; TGI (SNB-19 CNS): > 100 µM; GI50 (SNB-75 CNS): > 100 µM; TGI (SNB-75 CNS): > 100 µM; GI50 (SR leukemia): > 100 µM; TGI (SR leukemia): > 100 µM; GI50 (SW-620 colon): > 100 µM; TGI (SW-620 colon): > 100 µM; GI50 (T-47D breast): > 100 µM; TGI (T-47D breast): > 100 µM; GI50 (TK-10 renal): > 100 µM; TGI (TK-10 renal): > 100 µM; GI50 (U251 CNS): > 100 µM; TGI (U251 CNS): > 100 µM; GI50 (UACC-257 melanoma): > 100 µM; TGI (UACC-257 melanoma): > 100 µM; GI50 (UACC-62 melanoma): > 100 µM; TGI (UACC-62 melanoma): > 100 µM; GI50 (UO-31 renal): > 100 µM; TGI (UO-31 renal): > 100 µM
